The values that follow come from patent publication US8735411B2, “Macrocyclic benzofused pyrimidine derivatives” (AbbVie Inc., priority 2006, dated 2014).

histamine H4 receptor, sequence (Q9H3N8 whole entry): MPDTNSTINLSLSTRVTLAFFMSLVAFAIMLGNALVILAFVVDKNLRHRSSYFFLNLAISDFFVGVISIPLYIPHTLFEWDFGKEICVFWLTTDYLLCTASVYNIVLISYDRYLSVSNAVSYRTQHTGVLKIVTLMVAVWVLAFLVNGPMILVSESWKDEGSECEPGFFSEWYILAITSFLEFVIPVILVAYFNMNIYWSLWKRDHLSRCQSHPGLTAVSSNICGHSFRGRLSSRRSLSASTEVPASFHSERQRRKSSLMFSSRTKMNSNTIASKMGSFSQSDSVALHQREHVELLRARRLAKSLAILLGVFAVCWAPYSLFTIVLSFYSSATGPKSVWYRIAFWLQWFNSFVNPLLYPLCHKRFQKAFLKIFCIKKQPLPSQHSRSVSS

This assay concerns the target histamine H4 receptor (Homo sapiens, UniProt Q9H3N8). Put plainly: In vitro histamine H4 potency in FLIPR (Ca2+ flux, HEK-293 cells coexpressing Gαqi5). Set-up: expressed in transfected cells. The following applies: Kb for antagonists and inverse agonists, EC50 for partial agonists. It counts as cell-based. An excerpt: There are many methods available to show the effectiveness of compounds as histamine H4 receptor ligands. Histamine H4 receptors from mammalian species have been cloned. Methods to clone, express, and assess the potency and functional activity of such cloned genes are well known to those skilled in the art of molecular biology. […] Before testing, cells are loaded with a Ca^+2 sensitive fluorescent dye, in this case Fluo-4. In the case of partial agonist or agonist ligands, addition of compound to the cells leads to the increase in intracellular Ca^+2 which is detected by FLIPR (Fluorescence Imaging Plate Reader; Molecular Devices, Sunnyvale, Calif.) technology. […] The fluorescence intensities measured before addition of the test compound are subtracted from the fluorescence intensities at later time points. Peak response values determined at each concentration of ligand are expressed as a percentage of the response obtained with the full agonist histamine. Concentration versus response data are analyzed to obtain compound potency as Kb values for antagonists and inverse agonists and as EC50 values for partial agonists.
In the case of `CNC1CN(c2nc(N)nc3c2CCS(=O)(=O)c2ccccc2-3)C1` [Example 38, 4-(3-Methylamino-azetidin-1-yl)-7,7-dioxo-6,7-dihydro-5H-7λ6-thia-1,3-diaza-dibenzo[a,c]cyclohepten-2-ylamine], the Potency is 5.754 µM.
The result for `Nc1nc2c(c(N3CCCNCC3)n1)CCCc1ccccc1-2` [Example 116, 4-[1,4]Diazepan-1-yl-6,7-dihydro-5H-benzo[6,7]cyclohepta[1,2-d]pyrimidin-2-ylamine] reads 0.015 µM; that for `CNc1ccc2c(c1)-c1nc(N)nc(N3CCNCC3)c1CCC2` [Example 129, 10-N-Methyl-4-piperazin-1-yl-6,7-dihydro-5H-benzo[6,7]cyclohepta[1,2-d]pyrimidine-2,10-diamine], 1.096 µM.
With `CNc1ccc2c(c1)-c1nc(N)nc(N3C[C@H]4CCCN[C@H]4C3)c1CCC2` [Example 131, 10-N-methyl-4-[(4aR,7aR)-octahydro-6H-pyrrolo[3,4-b]pyridin-6-yl]-6,7-dihydro-5H-benzo[6,7]cyclohepta[1,2-d]pyrimidine-2,10-diamine], the Potency is 0.113 µM.
The figure for `Nc1nc2c(c(N3CCNCC3)n1)CCCc1ccc(F)cc1-2` [Example 13, 10-Fluoro-4-piperazin-1-yl-6,7-dihydro-5H-benzo[6,7]cyclohepta[1,2-d]pyrimidin-2-ylamine] is 0.0072 µM; for `Nc1nc(O[C@H]2CCNC2)c2c(n1)-c1ccccc1CCC2` [Example 73, 4-((S)-Pyrrolidin-3-yloxy)-6,7-dihydro-5H-benzo[6,7]cyclohepta[1,2-d]pyrimidin-2-ylamine] it is 0.468 µM.
For the compound `Nc1nc2c(c(N3CC4CNCC4C3)n1)CCCc1ccccc1-2` (stereo not shown) [Example 22, 4-(Hexahydro-pyrrolo[3,4-c]pyrrol-2-yl)-6,7-dihydro-5H-benzo[6,7]cyclohepta[1,2-d]pyrimidin-2-ylamine], the Potency is 0.066 µM.
The figure for `c1ccc2c(c1)CCCc1c-2nc(N2CCNCC2)nc1N1CCNCC1` [Example 103, 2,4-Di-piperazin-1-yl-6,7-dihydro-5H-benzo[6,7]cyclohepta[1,2-d]pyrimidine] is 0.351 µM.
Compound `COC(=O)N(C)c1ccc2c(c1)-c1nc(N)nc(N3CCNCC3)c1CCC2` [Example 128, (2-Amino-4-piperazin-1-yl-6,7-dihydro-5H-benzo[6,7]cyclohepta[1,2-d]pyrimidin-10-yl)-methyl-carbamic acid methyl ester] returned a Potency of 0.562 µM.
In turn, `CN1CCC(Oc2nc(N)nc3c2CCCc2ccccc2-3)CC1` [Example 68, 4-(1-Methyl-piperidin-4-yloxy)-6,7-dihydro-5H-benzo[6,7]cyclohepta[1,2-d]pyrimidin-2-ylamine] yielded a Potency of 0.015 µM.
Compound `Nc1nc2c(c(N3CCNCC3)n1)CCSc1ccccc1-2` [Example 36, 4-Piperazin-1-yl-5,6-dihydro-7-thia-1,3-diaza-dibenzo[a,c]cyclohepten-2-ylamine] came in with a Potency of 0.039 µM.
Consider `COC(=O)c1nc2c(c(N3CC4CCCNC4C3)n1)CCCc1ccccc1-2` (stereo not shown) [Example 133, 4-(Octahydro-pyrrolo[3,4-b]pyridin-6-yl)-6,7-dihydro-5-benzo[6,7]cyclohepta[1,2-d]pyrimidine-2-carboxylic acid methyl ester], for which the Potency was found to be 14.454 µM.
The compound `Nc1nc2c(c(N3CCNCC3)n1)CCCc1cc3c(cc1-2)CCCC3` [Example 99, 4-Piperazin-1-yl-6,7,9,10,11,12-hexahydro-5H-1,3-diaza-benzo[3,4]cyclohepta[1,2b]naphthalen-2-ylamine] showed a Potency of 0.025 µM.
The result for `CN1CC[C@H](Oc2nc(N)nc3c2CCCc2ccccc2-3)C1` [Example 71, 4-((S)-1-Methyl-pyrrolidin-3-yloxy)-6,7-dihydro-5H-benzo[6,7]cyclohepta[1,2-d]pyrimidin-2-ylamine] reads 0.263 µM.
The figure for `CN[C@@H]1CCN(c2nc(N)nc3c2COc2ccccc2-3)C1` [Example 9, 1-(3-(R)-Methylamino-pyrrolidin-1-yl)-10H-9-oxa-2,4-diaza-phenanthren-3-ylamine] is 0.032 µM; for `Nc1nc2c(c(N3CC4CCCNC4C3)n1)CCCc1cc3c(cc1-2)CCCC3` (stereo not shown) [Example 98, 4-(Octahydro-pyrrolo[3,4-b]pyridin-6-yl)-6,7,9,10,11,12-hexahydro-5H-1,3-diaza-benzo[3,4]cyclohepta[1,2-b]naphthalen-2-ylamine] it is 0.052 µM; for `CN[C@@H]1CCN(c2nc(N)nc3c2CCCc2ccc(F)cc2-3)C1` [Example 11, 10-Fluoro-4-(3-(R)-methylamino-pyrrolidin-1-yl)-6,7-dihydro-5H-benzo[6,7]cyclohepta[1,2-d]pyrimidin-2-ylamine] it is 0.0078 µM.
The figure for `CN[C@@H]1CCN(c2ncnc3c2CCCc2ccccc2-3)C1` [Example 124, 4-(3-(R)-Methylamino-pyrrolidin-1-yl)-6,7-dihydro-5H-benzo[6,7]cyclohepta[1,2-d]pyrimidine] is 1.413 µM; for `Nc1nc2c(c(N3CC4CCCNC4C3)n1)SCCc1ccccc1-2` (stereo not shown) [Example 110, 4-(Octahydro-pyrrolo[3,4-b]pyridin-6-yl)-6,7-dihydro-5-thia-1,3-diaza-dibenzo[a,c]cyclohepten-2-ylamine] it is 0.054 µM; for `Nc1nc2c(c(N3CCC(N)CC3)n1)CCCc1ccccc1-2` [Example 62, 4-(4-aminopiperidin-1-yl)-6,7-dihydro-5H-benzo[6,7]cyclohepta[1,2-d]pyrimidin-2-amine] it is 0.389 µM.
Compound `CN[C@@H]1CCN(c2nc(N)nc3c2CCOc2cc(OC)ccc2-3)C1` [Example 50, 9-methoxy-4-[(3R)-3-(methylamino)pyrrolidin-1-yl]-5,6-dihydro[1]benzoxepino[5,4-d]pyrimidin-2-amine] displayed a Potency of 0.056 µM.
The result for `Nc1nc2c(c(N3CCC(N4CCCCC4)C3)n1)CCCc1ccccc1-2` (stereo not shown) [Example 18, 4-(3-Piperidin-1-yl-pyrrolidin-1-yl)-6,7-dihydro-5H-benzo[6,7]cyclohepta[1,2-d]pyrimidin-2-ylamine] reads 25.704 µM.
`Nc1nc(NC2CCCC3CNCC32)c2c(n1)-c1ccccc1CCC2` (stereo not shown) [Example 122, N^4-(Octahydro-isoindol-4-yl)-6,7-dihydro-5H-benzo[6,7]cyclohepta[1,2-d]pyrimidine-2,4-diamine] returned a Potency of 1.288 µM.
`CN1CCN(c2nc(N)nc3c2CCOc2ccccc2-3)CC1` [Example 29, 4-(4-Methyl-piperazin-1-yl)-5,6-dihydro-7-oxa-1,3-diaza-dibenzo[a,c]cyclohepten-2-ylamine] displayed a Potency of 0.039 µM.
`Nc1nc2c(c(N3CC[C@@H]4CNC[C@@H]43)n1)CCCCc1ccccc1-2` [Example 58, 4-[(3aR,6aR)-hexahydropyrrolo[3,4-b]pyrrol-1(2H)-yl]-5,6,7,8-tetrahydrobenzo[7,8]cycloocta[1,2-d]pyrimidin-2-amine] had a Potency of 0.182 µM.
The figure for `CN(C)CCNc1nc2c(c(N3CCNCC3)n1)CCCc1ccccc1-2` [Example 95, N,N-Dimethyl-N′-(4-piperazin-1-yl-6,7-dihydro-5H-benzo[6,7]cyclohepta[1,2-d]pyrimidin-2-yl)-ethane-1,2-diamine] is 1.413 µM.
In turn, `NCCC(=O)Nc1nc2c(c(N3CCNCC3)n1)CCCc1ccccc1-2` [Example 93, 3-Amino-N-(4-piperazin-1-yl-6,7-dihydro-5H-benzo[6,7]cyclohepta[1,2-d]pyrimidin-2-yl)-propionamide] gave a Potency of 0.135 µM.
`Nc1nc2c(c(N3CC[C@@H](N)C3)n1)CCSc1ccccc1-2` [Example 35, 4-(3-(R)-Amino-pyrrolidin-1-yl)-5,6-dihydro-7-thia-1,3-diaza-dibenzo[a,c]cyclohepten-2-ylamine] registered a Potency of 0.891 µM.
The figure for `CN(C)[C@@H]1CCN(c2nc(N)nc3c2CCCc2ccccc2-3)C1` [Example 76, 4-((R)-3-Dimethylamino-pyrrolidin-1-yl)-6,7-dihydro-5H-benzo[6,7]cyclohepta[1,2-d]pyrimidin-2-ylamine] is 0.055 µM.
The result for `Nc1nc2c(c(N3CC4CCCNC4C3)n1)CCOc1cc(-c3ccccc3)ccc1-2` (stereo not shown) [Example 105, 4-Octahydro-pyrrolo[3,4-b]pyridin-6-yl-9-phenyl-5,6-dihydro-7-oxa-1,3-diaza-dibenzo[a,c]cyclohepten-2-ylamine] reads 0.083 µM; that for `CN[C@@H]1CCN(c2nc(N)nc3c2CCOc2ccc(Cl)cc2-3)C1` [Example 45, 10-chloro-4-[(3R)-3-(methylamino)pyrrolidin-1-yl]-5,6-dihydro[1]benzoxepino[5,4-d]pyrimidin-2-amine], 0.069 µM; that for `CNC1CN(c2nc(N)nc3c2CCc2ccccc2-3)C1` [Example 40, 4-(3-Methylamino-azetidin-1-yl)-5,6-dihydro-benzo[h]quinazolin-2-ylamine], 0.034 µM.
`CNC1CN(c2nc(N)nc3c2COc2ccccc2-3)C1` [Example 8, 1-(3-Methylamino-azetidin-1-yl)-10H-9-oxa-2,4-diaza-phenanthren-3-ylamine] showed a Potency of 0.033 µM.
The figure for `CN[C@@H]1CCN(c2nc(N)nc3c2CCOc2c(OC)cccc2-3)C1` [Example 53, 8-methoxy-4-[(3R)-3-(methylamino)pyrrolidin-1-yl]-5,6-dihydro[1]benzoxepino[5,4-d]pyrimidin-2-amine] is 0.1 µM.
